These results are taken from PMC11920646 (Frontiers in Pharmacology, 2025).

In assay [1] the target is T1, human progesterone receptor (PR) (Homo sapiens, UniProt P06401).
T1 sequence (P06401 636-933 limits assumed): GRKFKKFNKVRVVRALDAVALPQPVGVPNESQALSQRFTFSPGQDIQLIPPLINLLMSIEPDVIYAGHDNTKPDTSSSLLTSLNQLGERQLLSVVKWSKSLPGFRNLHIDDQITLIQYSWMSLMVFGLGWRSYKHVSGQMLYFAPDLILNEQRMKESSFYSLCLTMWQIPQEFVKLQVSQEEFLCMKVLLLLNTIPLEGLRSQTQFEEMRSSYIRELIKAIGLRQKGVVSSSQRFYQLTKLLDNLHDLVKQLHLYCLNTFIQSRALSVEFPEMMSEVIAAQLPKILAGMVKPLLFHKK
Briefly: Human PR radioligand binding (3H-progesterone, T47D cells). The following applies: read-out: inhibition of 3H-progesterone binding; footnote: at 10 µM. As for the experimental part:
(§1) Scintillation counting of bound radioligand was conducted after 6 and 20 h of incubation (at 4°C), respectively. […] Scintillation counting of bound radioligand was conducted after 20 h of incubation at 4°C.
(§2) The same statistical methods were used for the MR binding assays, but using MathIQ™ software (ID Business Solutions Ltd., Woking, United Kingdom).
(§3) Percent inhibition of control specific binding was calculated as follows: […]
(§4) The half-maximal inhibitory concentration (IC50; i.e., the concentration causing a half-maximal inhibition of control specific binding) and Hill coefficients (nH) were determined by non-linear regression analysis of the competition curves generated with mean replicate values using the following Hill equation curve fitting: Y=D+ A-D1+ C/C50nH , where Y = specific binding, A = left asymptote of the curve, D = right asymptote of the curve, C = compound concentration, C50 = IC50, and nH = slope factor.
(§5) The inhibition constants (Ki) were calculated using the Cheng Prusoff equation:
(§6) where L = concentration of radioligand employed in the assay, and KD = affinity of the radioligand for the receptor (a Scatchard plot was used to determine the KD) (Cheng and Prusoff, 1973).

In the next assay the target is T2, human GR (Homo sapiens, UniProt P04150).
T2 construct: host or cells: CHO (DSMZ ACC-110), CHO-Gal4/GR
T2 sequence (P04150 524-758 limits assumed): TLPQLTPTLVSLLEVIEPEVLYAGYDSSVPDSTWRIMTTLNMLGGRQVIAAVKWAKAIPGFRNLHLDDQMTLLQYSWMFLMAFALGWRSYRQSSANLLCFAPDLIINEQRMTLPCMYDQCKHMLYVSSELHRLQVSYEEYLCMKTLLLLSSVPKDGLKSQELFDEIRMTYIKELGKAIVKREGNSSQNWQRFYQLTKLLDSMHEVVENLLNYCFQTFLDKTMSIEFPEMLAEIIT
The assay is described as follows: GR reporter gene (transactivation) assay, CHO-Gal4/GR. The class given is cell-based. The following applies: % of reference agonist beclomethasone. The text has this: To create the CHO-Gal4/GR, CHO-Gal4/PR, and CHO-Gal4/MR reporter cell lines, first CHO cells were stably transfected with a GAL4-UAS-luciferase reporter construct. Then, the LBD of the GR, PR, or MR (GR Gene ID: 2908, PR Gene ID: 5241, MR Gene ID: 4306, respectively) was cloned into pIRES2-EGFP-GAL4 containing the DBD of GAL4 from pFA-AT2, and then co-transfected into the luciferase-reporter construct-containing CHO cells. These reporter cell lines express the respective nuclear hormone receptor LBD-DBD fusion proteins that control luciferase expression of a GAL4-upstream activation sequence (UAS)-luciferase reporter construct, allowing for detection of ligand- or compound-induced transactivation at the GR, PR, or MR by measuring luciferase activity.
Cryo-preserved CHO-Gal4/GR, CHO-Gal4/PR, and CHO-Gal4/MR cells were plated in medium at 7,500 cells/well in 384-well assay plates (25 μL/well), and incubated for 24 h. […] Following a 4-h incubation, cells were lysed and luminescence measured using the EMCCD camera FLIPR®Tetra (Molecular Devices, Silicon Valley, CA, United States).
Transactivation (i.e., gene activation) was expressed as a percentage of the reference agonist activity (Supplementary Material), using Genedata Screener® v15.0.5 software (Basel, Switzerland).
Transactivation was calculated according to this equation: […]
In general terms: In a reporter assay the amount or activity of a reporter protein is the signal.

In the next assay the target is T3, human MR (Homo sapiens, UniProt P08235).
T3 construct: host or cells: insect Sf9 cells
T3 sequence (P08235 1-984): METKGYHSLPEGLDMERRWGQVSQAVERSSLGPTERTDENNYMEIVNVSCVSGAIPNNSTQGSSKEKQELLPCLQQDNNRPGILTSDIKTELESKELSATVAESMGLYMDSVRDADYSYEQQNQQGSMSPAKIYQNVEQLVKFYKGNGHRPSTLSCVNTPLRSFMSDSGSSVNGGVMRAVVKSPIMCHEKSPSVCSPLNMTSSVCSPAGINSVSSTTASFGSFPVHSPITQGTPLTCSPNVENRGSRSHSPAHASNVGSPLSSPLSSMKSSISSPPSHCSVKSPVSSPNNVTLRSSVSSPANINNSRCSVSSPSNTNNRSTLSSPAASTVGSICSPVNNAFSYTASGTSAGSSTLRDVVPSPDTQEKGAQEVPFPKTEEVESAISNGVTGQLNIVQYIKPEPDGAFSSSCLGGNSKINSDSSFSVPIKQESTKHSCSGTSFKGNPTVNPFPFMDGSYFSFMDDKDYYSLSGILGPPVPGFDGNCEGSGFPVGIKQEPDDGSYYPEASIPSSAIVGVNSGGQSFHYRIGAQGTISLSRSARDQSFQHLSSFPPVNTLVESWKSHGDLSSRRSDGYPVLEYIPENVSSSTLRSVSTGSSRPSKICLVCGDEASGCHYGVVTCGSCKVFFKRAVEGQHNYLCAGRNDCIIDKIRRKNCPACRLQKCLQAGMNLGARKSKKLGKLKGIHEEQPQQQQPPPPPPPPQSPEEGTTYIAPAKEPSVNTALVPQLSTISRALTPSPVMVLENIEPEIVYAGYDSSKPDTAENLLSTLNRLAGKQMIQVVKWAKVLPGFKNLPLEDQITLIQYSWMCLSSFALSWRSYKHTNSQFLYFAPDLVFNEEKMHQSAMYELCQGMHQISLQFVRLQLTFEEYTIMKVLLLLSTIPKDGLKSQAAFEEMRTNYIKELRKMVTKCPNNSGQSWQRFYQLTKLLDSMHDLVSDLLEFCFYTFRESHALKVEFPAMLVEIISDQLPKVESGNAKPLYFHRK
Briefly: Human MR radioligand binding (3H-aldosterone, recombinant MR from Sf9 cells). The following applies: 3H-aldosterone 0.4 nM, 20 h, 4°C. As for the experimental part: as §1, §2, §3, §4, §5, §6

“And” between values parts separate entries of the source, which are not always exact repeats. Identical values can stand only once.

As to `C[C@]12C=CC(=O)C=C1CC[C@@H]1[C@@H]2[C@@H](O)C[C@@]2(C)[C@H]1CC[C@]2(O)C(=O)CO` [Prednisolone], the inhibition at 10 µM in assay [1] lay in the range of 12.1 to 30.7%. Further, on human GR, the “GR transactivation, mean activation (efficacy)” value was 80.5% and 80.5 ± 2.2%. At human MR (read-out: Mineralocorticoid receptor IC50), the IC50 turned out to be 0.78 nM. Besides, the Ki at human MR (read-out: Mineralocorticoid receptor Ki) is 0.26 nM.

One may read the inhibition as the change of the read-out against control, counted positive when it falls. A word on the IC50: it is the concentration that gives 50% inhibition. Broadly, the Ki is the dissociation constant of the complex between target and ligand, obtained from inhibition or displacement.
